Laboratory results from a melting point compilation (Tetko et al.; mined from patent text by program, amines drawn as free bases though some values may be those of a salt).

| melting point | SMILES |
| --- | --- |
| 96 °C | Cc1cc(-n2ccnc2)c2cccc(OCc3c(Cl)ccc(S(=O)(=O)N4CCC[C@H]4C(=O)NCC4CCN(CCOCCO)CC4)c3Cl)c2n1 |
| 206 to 210 °C | COC(=O)CCc1cc2cc(Cl)ccc2n1S(=O)(=O)c1cccc2c(C(=O)CN)cccc12 |
| 285 to 290 °C | O=C(O)c1ccc(C(=C2CC3CCC(C2)N3CCc2ccccc2)c2ccccc2)cc1 |
| 95 to 99 °C | CS(=O)(=O)Nc1ccc2c(c1)C(=NO)CC1(CCN(CCc3ccccc3)CC1)O2 |
| 100 to 105 °C | CN(C(=O)C(Cc1c[nH]c2ccccc12)NC(=O)OC(C)(C)C(Cl)(Cl)Cl)C(Cc1ccccc1)C(N)=O (racemic) |
| 133 to 135 °C | CCOC(=O)c1cc(C#N)c(C)nc1Nc1ccccc1 |
| 228 to 232 °C | CCc1nccn1-c1ccc(NC(=O)NC)cc1 |
| 271 to 272 °C | CC(=O)Nc1nc2c(Oc3cc(-c4ccc(Br)cc4)ncn3)cccc2s1 |
| 151 to 152 °C | CN1CCN(c2cccc3c2ccn3S(=O)(=O)c2ccc(F)cc2)CC1 |
| 170 °C | C/C(=C\c1ccc(C(F)(F)F)cc1)C(=O)O |
| 198 °C | O=C(O)c1ccc(CN2Cc3ccccc3Cc3ccccc32)cc1 |
| 105 to 106 °C | CCOC(=O)CN(C=C(C(=O)OCC)C(=O)OCC)N=Cc1ccccc1 |
| 81 to 83 °C | CCCCCc1c(C(C)C)nc(C(C)C)c(CCO)c1-c1ccc(F)cc1 |
| 84 to 87 °C | CC(=O)OCC(C)(C)C(OC(C)=O)C(Oc1ccc(Cl)cc1)n1cncn1 (centres undefined) |
| 81.7 °C | COc1ccc(Oc2ccc(C(=O)N(C(C)C)C3CCCCC3)cc2)cc1 |
| 226 to 228 °C | Cn1nc(O[C@@H]2c3cc([N+](=O)[O-])ccc3OC(CF)(CF)[C@H]2O)ccc1=O (relative stereo) |
| 44 to 54 °C | CC(=O)CC(=O)OC(c1ccccc1)c1ccccc1 |
| 133 to 134 °C | CN1CCCc2ccc(C(=O)CCC(=O)N3CCC(c4ccc(Cl)cc4)CC3)cc2C1 |
| 136 to 139 °C | NS(=O)(=O)c1ccccc1C1CO1 (centres undefined) |
| 132 to 134 °C | CCn1cc(-c2ccc3c(c2)c(C2CCN(CCN4CCNC4=O)CC2)cn3-c2ccc(F)cc2)nn1 |

| melting point | SMILES |
| --- | --- |
| 98 to 100 °C | CCOC(=O)C(=O)Nc1cccnc1 |
| 150 to 152 °C | Oc1ccc(-c2nnn(-c3ccc(C(F)(F)F)cc3F)c2Cl)c(Cl)c1 |
| > 240 °C | Cn1cc(C2c3ccc(Cl)cc3C=Cc3sc(N)nc32)c(=O)[nH]c1=O (centres undefined) |
| 137 °C | CCC(Cl)c1nc2cccnc2[nH]1 (centres undefined) |
| 72 °C | CC(C)(C)OC(=O)N1CCN(CCOc2cccc3c2c2cccc4c2n3C(c2ccccc2)CO4)CC1 (centres undefined) |
| 42 to 43 °C | COc1ccccc1C=CCCCCCC(=O)O |
| 106 to 107 °C | COC(=O)Cc1cc(OCc2ccc3ccccc3n2)ccc1Nc1ccccc1 |
| 48 to 49 °C | CCOC(=O)C(Cc1ccc(C(F)(F)F)cc1)C(=O)c1ccc(F)c(F)c1 (centres undefined) |
| 232 to 237 °C | Nc1cc(C(=O)O)cc(S(N)(=O)=O)c1-c1ccccc1 |
| 69 to 70 °C | CCN(CC)C(=O)c1nc(C=Cc2ccc(OC)cc2)no1 |
| 242 to 244 °C | CCOC(=O)C1C=Nc2c(ccc3cccnc23)C1=O (centres undefined) |
| 173 to 174 °C | CC(=O)N(CCCC(=O)O)C(c1ccccc1)c1ccccc1 |
| 115 to 116 °C | O=C(N[C@@H](Cc1ccc2ccccc2c1)[C@H]1CO1)OCc1ccccc1 |
| 220 to 222 °C | Cc1cc2cc(C(=O)O)ccc2s1 |
| 85 to 87 °C | O=C(Cc1cccc(C(F)(F)F)c1)Cn1cncn1 |
| 55 to 57 °C | Oc1ccc(F)cc1C=C(Cl)Cl |
| 115 to 117 °C | O=C1CC(CCN2CCC(c3c[nH]c4ccccc34)CC2)c2ccccc2N1 (centres undefined) |
| 165 to 166 °C | COC1(C)CC(NC(=O)C(F)(F)F)C(O)(NC(=O)C(F)(F)F)C(C)O1 (centres undefined) |
| 95 to 100 °C | Nc1nc2c(ncn2COCC(COC(=O)COc2ccccc2)OC(=O)COc2ccccc2)c(=O)[nH]1 (centres undefined) |
